Here are results for 26 molecules from US12065436B2, “Cardiac sarcomere inhibitors” (Cytokinetics, Inc., priority 2018, dated 2024).

The assay deals with bovine cardiac myofibrils (full-length cardiac myosin ATPase in the native sarcomere) (Bos taurus (Bovine), UniProt Q9BE39). The experiment in a line: Skinned bovine cardiac myofibril ATPase assay (PK/LDH-coupled). Type of assay: biochemical. The conditions noted are these: Ca2+ activating to 75% of maximal rate; for CDMF75 IC15: concentration giving 15% inhibition; for IC50: read-out: CDMF75 IC50. The procedure: To evaluate the effect of compounds on the ATPase activity of full-length cardiac myosin in the context of the native sarcomere, skinned myofibril assays were performed. Bovine cardiac myofibrils were obtained by homogenizing bovine cardiac left ventricular tissue in the presence of a detergent such as triton X-100. Such treatment removes membranes and a majority of the soluble cytoplasmic proteins but leaves intact the cardiac sarcomeric acto-myosin apparatus. Myofibril preparations retain the ability to hydrolyze ATP in an Ca^2+ regulated manner. ATPase activities of such myofibril preparations in the presence and absence of compounds were assayed at Ca^2+ concentrations activating to a defined fraction of the maximal rate (i.e., 25%, 75%). Small molecule agents were assessed for their ability to inhibit the steady-state ATPase activity of bovine cardiac myofibrils using pyruvate kinase and lactate dehydrogenase (PK/LDH)-coupled enzyme system. This assay regenerates myosin-produced ADP into ATP by oxidizing NADH, producing an absorbance change at 340 nm. Prior to testing small molecule agents, the bovine cardiac myofibrils were assessed for their calcium responsiveness and the calcium concentration that achieves either a 50% (pCa50) or 75% (pCa75) activation of the myofibril system was chosen as the final condition for assessing the inhibitory activity of the small molecule agents. All enzymatic activity was measured in a buffered solution containing 12 mM PIPES (piperazine-N,N′-bis(2-ethanesulfonic acid), 2 mM magnesium chloride at pH 6.8 (PM 12 buffer). Final assay conditions were 1 mg/mL of bovine cardiac myofibrils, 4 U/mL pyruvate kinase, 6 U/mL lactate dehydrogenase, 50 μM ATP, 0.1 mg/mL BSA (bovine serum albumin), 10 ppm antifoam, 1 mM DTT, 0.5 mM NADH, 1.5 mM PEP, 0.6 mM EGTA, and an amount of CaCl2) sufficient to achieve either 50% or 75% activation of the myofibril ATPase activity.

The structures appear in SMILES notation.

bovine cardiac myofibrils (full-length cardiac myosin ATPase in the native sarcomere), sequence (Q9BE39 whole entry): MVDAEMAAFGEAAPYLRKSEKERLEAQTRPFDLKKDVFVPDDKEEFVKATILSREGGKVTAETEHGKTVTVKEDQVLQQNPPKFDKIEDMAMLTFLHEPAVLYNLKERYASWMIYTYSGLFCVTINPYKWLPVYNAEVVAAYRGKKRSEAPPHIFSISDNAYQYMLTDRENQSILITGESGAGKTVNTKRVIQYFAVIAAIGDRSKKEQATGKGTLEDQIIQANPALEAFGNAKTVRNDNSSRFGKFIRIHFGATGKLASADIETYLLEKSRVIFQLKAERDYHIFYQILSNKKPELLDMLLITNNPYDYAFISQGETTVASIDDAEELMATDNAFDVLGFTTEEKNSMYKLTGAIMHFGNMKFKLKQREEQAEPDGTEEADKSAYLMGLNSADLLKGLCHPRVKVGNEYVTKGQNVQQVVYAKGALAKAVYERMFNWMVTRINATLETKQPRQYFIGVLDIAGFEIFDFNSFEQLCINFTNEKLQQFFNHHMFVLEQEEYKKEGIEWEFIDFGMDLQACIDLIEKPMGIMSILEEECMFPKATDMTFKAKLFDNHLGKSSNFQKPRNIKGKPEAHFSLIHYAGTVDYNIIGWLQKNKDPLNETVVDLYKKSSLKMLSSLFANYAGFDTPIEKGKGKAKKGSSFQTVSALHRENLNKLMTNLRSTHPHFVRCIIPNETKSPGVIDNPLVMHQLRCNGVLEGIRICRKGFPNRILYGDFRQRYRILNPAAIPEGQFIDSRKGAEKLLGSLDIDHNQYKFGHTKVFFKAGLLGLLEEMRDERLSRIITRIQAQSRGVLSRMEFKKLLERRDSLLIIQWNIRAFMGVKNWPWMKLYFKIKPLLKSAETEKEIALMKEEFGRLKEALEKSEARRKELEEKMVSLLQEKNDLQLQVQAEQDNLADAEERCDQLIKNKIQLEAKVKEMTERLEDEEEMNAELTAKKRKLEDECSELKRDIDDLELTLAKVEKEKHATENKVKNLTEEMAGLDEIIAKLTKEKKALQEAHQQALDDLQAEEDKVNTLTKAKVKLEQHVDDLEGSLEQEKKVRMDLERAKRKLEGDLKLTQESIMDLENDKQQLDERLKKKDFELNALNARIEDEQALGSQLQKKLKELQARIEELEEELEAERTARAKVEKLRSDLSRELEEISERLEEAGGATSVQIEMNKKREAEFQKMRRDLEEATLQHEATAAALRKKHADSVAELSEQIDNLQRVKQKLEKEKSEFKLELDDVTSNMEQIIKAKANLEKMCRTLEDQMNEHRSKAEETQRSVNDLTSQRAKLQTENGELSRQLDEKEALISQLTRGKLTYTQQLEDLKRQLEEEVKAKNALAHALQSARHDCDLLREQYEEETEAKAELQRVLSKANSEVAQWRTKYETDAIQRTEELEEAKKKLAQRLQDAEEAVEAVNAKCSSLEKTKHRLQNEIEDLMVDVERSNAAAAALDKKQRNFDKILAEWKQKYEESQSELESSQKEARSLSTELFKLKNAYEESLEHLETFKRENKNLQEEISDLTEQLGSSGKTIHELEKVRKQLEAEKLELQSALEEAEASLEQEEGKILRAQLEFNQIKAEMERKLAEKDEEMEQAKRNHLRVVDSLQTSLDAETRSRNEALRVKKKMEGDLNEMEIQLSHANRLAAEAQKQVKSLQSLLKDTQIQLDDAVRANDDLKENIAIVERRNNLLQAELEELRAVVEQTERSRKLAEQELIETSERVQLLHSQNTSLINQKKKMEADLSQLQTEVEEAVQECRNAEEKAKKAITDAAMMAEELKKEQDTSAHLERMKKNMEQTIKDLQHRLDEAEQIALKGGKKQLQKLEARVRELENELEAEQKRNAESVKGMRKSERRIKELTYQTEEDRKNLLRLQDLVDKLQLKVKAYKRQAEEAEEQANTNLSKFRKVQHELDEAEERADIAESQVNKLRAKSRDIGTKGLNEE
bovine cardiac myofibrils (full-length cardiac myosin ATPase in the native sarcomere), sequence (P85100 whole entry partner): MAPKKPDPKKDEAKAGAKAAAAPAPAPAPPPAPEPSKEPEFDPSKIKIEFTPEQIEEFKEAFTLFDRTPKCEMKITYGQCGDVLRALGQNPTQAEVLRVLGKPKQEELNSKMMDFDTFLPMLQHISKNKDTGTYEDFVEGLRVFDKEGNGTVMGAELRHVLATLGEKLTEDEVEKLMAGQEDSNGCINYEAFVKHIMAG
bovine cardiac myofibrils (full-length cardiac myosin ATPase in the native sarcomere), sequence (Q3SZE5 whole entry partner): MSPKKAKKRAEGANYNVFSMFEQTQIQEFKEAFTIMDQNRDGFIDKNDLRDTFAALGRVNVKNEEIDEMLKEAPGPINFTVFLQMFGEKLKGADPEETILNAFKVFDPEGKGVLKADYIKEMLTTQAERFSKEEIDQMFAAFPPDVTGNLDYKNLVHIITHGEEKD

For orientation: IC50 means the concentration needed to halve the response being measured. On to `COCc1nc(-c2ccc3c(c2)CC[C@H]3NC(=O)c2oncc2C)no1` [Compound 114, (R)-N-(5-(5-(methoxymethyl)-1,2,4-oxadiazol-3-yl)-2,3-dihydro-1H-inden-1-yl)-4-methylisoxazole-5-carboxamide], for which the “CDMF75 IC15” value was determined as 500 nM and the half-maximal inhibitory concentration (IC50) came to 2000 nM.

On to `O=C(N[C@@H]1CCc2cc(-c3noc(C4CCC4)n3)ccc21)c1nnn(Cc2ccccc2)n1` [Compound 503, (R)-2-benzyl-N-(5-(5-cyclobutyl-1,2,4-oxadiazol-3-yl)-2,3-dihydro-1H-inden-1-yl)-2H-tetrazole-5-carboxamide], for which the “CDMF75 IC15” value is 800 nM and the IC50 was 3400 nM.

As for `Cc1cc(-c2ccc3c(c2)CC[C@H]3NC(=O)c2cnn(C)c2)no1` [Compound 402, (R)-1-methyl-N-(5-(5-methylisoxazol-3-yl)-2,3-dihydro-1H-inden-1-yl)-1H-pyrazole-4-carboxamide], the “CDMF75 IC15” value is 1000 nM and the IC50 amounted to 3800 nM.

Turning to `CCOC(=O)C(C)c1nc(-c2ccc3c(c2)CC[C@H]3NC(=O)c2ccnn2C)no1` (stereo partly drawn) [Compound 492, ethyl 2-(3-((R)-1-(1-methyl-1H-pyrazole-5-carboxamido)-2,3-dihydro-1H-inden-5-yl)-1,2,4-oxadiazol-5-yl)propanoate], the “CDMF75 IC15” value came out at 1100 nM and the IC50 turned out to be 4000 nM.

Regarding `COCc1nc(-c2ccc3c(c2)OC[C@H]3NC(=O)c2ccnc(CO)c2)no1` [Compound 714, (S)-2-(hydroxymethyl)-N-(6-(5-(methoxymethyl)-1,2,4-oxadiazol-3-yl)-2,3-dihydrobenzofuran-3-yl)isonicotinamide], the “CDMF75 IC15” value came to 1400 nM and the half-maximal inhibitory concentration (IC50) was determined as 5500 nM.

For the molecule `COCc1nc(-c2ccc3c(c2)CC[C@H]3NC(=O)c2nnc(C)o2)no1` [Compound 698, (R)-N-(5-(5-(methoxymethyl)-1,2,4-oxadiazol-3-yl)-2,3-dihydro-1H-inden-1-yl)-5-methyl-1,3,4-oxadiazole-2-carboxamide], the “CDMF75 IC15” value stood at 900 nM and the half-maximal inhibitory concentration (IC50) stood at 3500 nM.

With `CCOC(=O)C(C)c1nc(-c2ccc3c(c2)CC[C@H]3NC(=O)c2nnn(C)n2)no1` (stereo partly drawn) [Compound 504, ethyl 2-(3-((R)-1-(2-methyl-2H-tetrazole-5-carboxamido)-2,3-dihydro-1H-inden-5-yl)-1,2,4-oxadiazol-5-yl)propanoate], the “CDMF75 IC15” value stood at 4400 nM and the IC50 was determined as 16600 nM.

For the molecule `CCc1nc(-c2ccc3c(c2)CC[C@H]3NC(=O)c2cnn(CC3(C)COC3)c2)no1` [Compound 507, (R)-N-(5-(5-ethyl-1,2,4-oxadiazol-3-yl)-2,3-dihydro-1H-inden-1-yl)-1-((3-methyloxetan-3-yl)methyl)-1H-pyrazole-4-carboxamide], the “CDMF75 IC15” value was 32600 nM and the concentration for half-maximal inhibition (IC50) was 39200 nM.

For `CCc1nc(-c2ccc3c(c2)CC[C@H]3NC(=O)c2ocnc2C)no1` [Compound 386, (R)-N-(5-(5-ethyl-1,2,4-oxadiazol-3-yl)-2,3-dihydro-1H-inden-1-yl)-4-methyloxazole-5-carboxamide], the “CDMF75 IC15” value came to 300 nM and the IC50 was determined as 800 nM.

As for `Cn1nccc1C(=O)N[C@@H]1CCc2cc(-c3nc(C(F)F)no3)ccc21` [Compound 217, (R)—N-(5-(3-(difluoromethyl)-1,2,4-oxadiazol-5-yl)-2,3-dihydro-1H-inden-1-yl)-1-methyl-1H-pyrazole-5-carboxamide], the “CDMF75 IC15” value was 600 nM and the IC50 was 1900 nM.

On to `Cc1cc(C(=O)N[C@@H]2CCc3cc(-c4nnn(C)n4)ccc32)ccn1` [Compound 147, (R)-2-methyl-N-(5-(2-methyl-2H-tetrazol-5-yl)-2,3-dihydro-1H-inden-1-yl)isonicotinamide], for which the “CDMF75 IC15” value was found to be 1300 nM and the half-maximal inhibitory concentration (IC50) came to 6200 nM.

With `O=C(N[C@@H]1COc2cc(-c3noc(C(F)F)n3)ccc21)c1ccnc(CO)c1` [Compound 710, (S)-N-(6-(5-(difluoromethyl)-1,2,4-oxadiazol-3-yl)-2,3-dihydrobenzofuran-3-yl)-2-(hydroxymethyl)isonicotinamide], the “CDMF75 IC15” value is 400 nM and the IC50 came to 1900 nM.

In the case of `COCc1nc(-c2ccc3c(c2)CC[C@H]3NC(=O)c2cc(C)no2)no1` [Compound 688, (R)-N-(5-(5-(methoxymethyl)-1,2,4-oxadiazol-3-yl)-2,3-dihydro-1H-inden-1-yl)-3-methylisoxazole-5-carboxamide], the “CDMF75 IC15” value is 1700 nM and the IC50 came to 6800 nM.

As to `Cc1ncoc1C(=O)N[C@@H]1CCc2cc(-c3noc(C(F)F)n3)ccc21` [Compound 448, (R)-N-(5-(5-(difluoromethyl)-1,2,4-oxadiazol-3-yl)-2,3-dihydro-1H-inden-1-yl)-4-methyloxazole-5-carboxamide], the “CDMF75 IC15” value was 300 nM and the IC50 is 900 nM.

With `Cc1cc(-c2ccc3c(c2)CC[C@H]3NC(=O)c2nnn(C)n2)no1` [Compound 252, (R)-2-methyl-N-(5-(5-methylisoxazol-3-yl)-2,3-dihydro-1H-inden-1-yl)-2H-tetrazole-5-carboxamide], the “CDMF75 IC15” value stood at 400 nM and the IC50 came out at 1500 nM.

Turning to `CCc1nc(-c2ccc3c(c2)OC[C@H]3NC(=O)c2cc(C)no2)no1` [Compound 339, (S)-N-(6-(5-ethyl-1,2,4-oxadiazol-3-yl)-2,3-dihydrobenzofuran-3-yl)-3-methylisoxazole-5-carboxamide], the “CDMF75 IC15” value was 400 nM and the half-inhibitory concentration (IC50) came to 1200 nM.

Consider `Cc1cc(C(=O)NC2COc3cc(-c4noc(C(F)F)n4)cnc32)ccn1` (stereo not shown) [Compound 195, N-(6-(5-(difluoromethyl)-1,2,4-oxadiazol-3-yl)-2,3-dihydrofuro[3,2-b]pyridin-3-yl)-2-methylisonicotinamide], for which the “CDMF75 IC15” value amounted to 10100 nM and the IC50 is over 39200 nM.

In the case of `O=C(N[C@@H]1CCc2cc(-c3noc(C4CC4)n3)ccc21)OCC(F)F` [Compound 334, 2,2-difluoroethyl (R)-(5-(5-cyclopropyl-1,2,4-oxadiazol-3-yl)-2,3-dihydro-1H-inden-1-yl)carbamate], the “CDMF75 IC15” value was found to be 600 nM and the IC50 came out at 1900 nM.

Consider `Cc1cc(C(=O)NC2CCc3cc(-c4noc(C(F)F)n4)ccc32)cc(C)n1` (stereo not shown) [Compound 24, N-(5-(5-(difluoromethyl)-1,2,4-oxadiazol-3-yl)-2,3-dihydro-1H-inden-1-yl)-2,6-dimethylisonicotinamide], for which the “CDMF75 IC15” value stood at 2100 nM and the concentration for half-maximal inhibition (IC50) worked out at 8000 nM.

`Cc1cc(C(=O)NC2CCc3cc(-c4noc(C(F)F)n4)ccc32)cnn1` (stereo not shown) [Compound 37, N-(5-(5-(difluoromethyl)-1,2,4-oxadiazol-3-yl)-2,3-dihydro-1H-inden-1-yl)-6-methylpyridazine-4-carboxamide]: the “CDMF75 IC15” value came out at 2100 nM and the half-inhibitory concentration (IC50) amounted to 9700 nM.

On to `[2H]C([2H])([2H])c1noc(-c2ccc3c(c2)CC[C@H]3NC(=O)c2ccnn2C)n1` [Compound 273, (R)-1-methyl-N-(5-(3-(methyl-d3)-1,2,4-oxadiazol-5-yl)-2,3-dihydro-1H-inden-1-yl)-1H-pyrazole-5-carboxamide], for which the “CDMF75 IC15” value came out at 700 nM and the 50% inhibitory concentration (IC50) is 2400 nM.

Consider `CC(C)C(=O)N[C@@H]1CCc2cc(-c3noc(C(F)F)n3)ccc21` [Compound 284, (R)-N-(5-(5-(difluoromethyl)-1,2,4-oxadiazol-3-yl)-2,3-dihydro-1H-inden-1-yl)isobutyramide], for which the “CDMF75 IC15” value stood at 38500 nM and the IC50 was over 39200 nM.

Turning to `Cc1nc(C(=O)NC2CCc3cc(-c4noc(C(F)F)n4)ccc32)c(C)o1` (stereo not shown) [Compound 22, N-(5-(5-(difluoromethyl)-1,2,4-oxadiazol-3-yl)-2,3-dihydro-1H-inden-1-yl)-2,5-dimethyloxazole-4-carboxamide], the “CDMF75 IC15” value turned out to be 5500 nM and the half-inhibitory concentration (IC50) is 28200 nM.

On to `CC(CO)c1nc(-c2ccc3c(c2)CC[C@H]3NC(=O)c2nnn(C)n2)no1` (stereo partly drawn) [Compound 518, N-((1R)-5-(5-(1-hydroxypropan-2-yl)-1,2,4-oxadiazol-3-yl)-2,3-dihydro-1H-inden-1-yl)-2-methyl-2H-tetrazole-5-carboxamide], for which the “CDMF75 IC15” value was 27800 nM and the IC50 is 39200 nM.

Turning to `Cc1cc(C(=O)N[C@@H]2COc3cc(-c4noc(C(F)F)n4)ccc32)n(C)n1` [Compound 191, (S)-N-(6-(5-(difluoromethyl)-1,2,4-oxadiazol-3-yl)-2,3-dihydrobenzofuran-3-yl)-1,3-dimethyl-1H-pyrazole-5-carboxamide], the “CDMF75 IC15” value turned out to be 300 nM and the IC50 amounted to 900 nM.

In the case of `O=C(N[C@@H]1CCc2cc(-c3noc(C(F)F)n3)ccc21)c1cc(CO)ccn1` [Compound 666, (R)-N-(5-(5-(difluoromethyl)-1,2,4-oxadiazol-3-yl)-2,3-dihydro-1H-inden-1-yl)-4-(hydroxymethyl)picolinamide], the “CDMF75 IC15” value is 800 nM and the IC50 is 3400 nM.
